Results reported in patent US5614497A, “Peptide, production and use thereof” (Takeda Chemical Industries, Ltd., priority 1991, dated 1997).
*1 amine or outer side, *2 acyl side, *3 side chain or, on linkers, in order; H or OH if unused. Where a SMILES comes first, the peptide text is derived from it. [ ]: non-standard residue; d: D form. The star is where a group is joined. Tyr(3-F) = N[C@@H](Cc1ccc(O)c(F)c1)C(=O)O; Tyr(3-I) = N[C@@H](Cc1ccc(O)c(I)c1)C(=O)O; Phe(4-F) = N[C@@H](Cc1ccc(F)cc1)C(=O)O; Boc = CC(C)(C)OC(=O)*; CO = O=C([*:1])[*:2]; Ahx = NCCCCCC(=O)O; X1 = C1CCCN(*)CC1; βAla = NCCC(=O)O

Target: endothelin receptors
Assay: Receptor Binding Assay (displacement of radioactive-iodine-labeled endothelin-1 from swine heart membrane fraction)
Settings: membrane fraction prepared from swine heart; endothelin-1 labeled with radioactive iodine; incubation at 25° C, 1 hour
Experimental: The membrane fraction prepared from swine heart was diluted to 0.15 mg/ml with an assaying buffer and dispensed to assaying tubes at 100 μl per tube. To this membrane fraction suspension were added 2 μl of a solution of endothelin-1labeled with 5 nM radioactive iodine and 3 μl of a 50% dimethylsulfoxide solution of the subject peptide, followed by incubation at 25° C. After 1 hour, the suspension was diluted with 900 μl of an ice-cooled assaying buffer and centrifuged at 12,000×G for 10 minutes to separate supernatant and precipitate. The precipitate contained cell membranes and endothelin receptors embedded therein. The receptor-bound endothelin, labeled with radioactive iodine, was also recovered in the precipitate. The radioactive iodine in this precipitate was counted, using a gamma ray counter, to determine the amount of radioactive-iodine-labeled endothelin bound to the endothelin receptors. The results of the quantitative determination are shown in IC50 (M) below.

Row | IC50 | Structure (SMILES)
1 | 0.34 nM | CC(C)C[C@H](NC(=O)N1CCCCCC1)C(=O)N[C@H](Cc1c[nH]c2ccccc12)C(=O)N[C@H](C)C(=O)NCCC(=O)N[C@@H](Cc1ccc(O)cc1)C(=O)N[C@H](Cc1ccccc1)C(=O)O [Example 39, hexamethyleneimino-CO-Leu-(D)Trp-(D)Ala-βAla-Tyr-(D)Phe-OH] ({X1-CO}-L[dW][dA][βAla]Y[dF]-OH)
2 | 700 nM | CC(C)C[C@H](NC(=O)OC(C)(C)C)C(=O)N[C@H](Cc1c[nH]c2ccccc12)C(=O)N[C@H](C)C(=O)NCCC(=O)N[C@@H](CCC(=O)O)C(=O)O [Reference Example 1, Boc-Leu-(D)Trp-(D)Ala-βAla-Glu--OH, reference compound] (Boc-L[dW][dA][βAla]E-OH)
3 | 60 nM | CC(C)C[C@H](NC(=O)OC(C)(C)C)C(=O)N[C@H](Cc1c[nH]c2ccccc12)C(=O)N[C@H](C)C(=O)NCCC(=O)N[C@@H](Cc1ccc(O)c(F)c1)C(=O)N[C@@H](Cc1ccc(F)cc1)C(=O)O [Example 38, Boc-Leu-(D)Trp-(D)Ala-βAla-(m-F)Tyr-(p-F)Phe-OH] (Boc-L[dW][dA][βAla][Tyr(3-F)][Phe(4-F)]-OH)
4 | 0.71 nM | CC(C)C[C@H](NC(=O)N1CCCCCC1)C(=O)N[C@H](Cc1c[nH]c2ccccc12)C(=O)N[C@H](C)C(=O)NCCC(=O)N[C@@H](Cc1ccc(O)c(I)c1)C(=O)N[C@H](Cc1ccccc1)C(=O)O [Example 43, Hexamethyleneimino-CO-Leu-(D)Trp-(D)Ala-βAla-Tyr(I)-(D)Phe-OH] ({X1-CO}-L[dW][dA][βAla][Tyr(3-I)][dF]-OH)
5 | 7.2 nM | CC(C)C[C@H](NC(=O)OC(C)(C)C)C(=O)N[C@H](Cc1c[nH]c2ccccc12)C(=O)N[C@H](C)C(=O)NCCCCCC(=O)N[C@@H](Cc1ccc(O)cc1)C(=O)N[C@@H](Cc1ccccc1)C(=O)O [Example 5, Boc-Leu-(D)Trp-(D)Ala-εAhx-Tyr-Phe-OH] (Boc-L[dW][dA][Ahx]YF-OH)
6 | 420 nM | CC(C)C[C@H](NC(=O)OC(C)(C)C)C(=O)N[C@H](Cc1c[nH]c2ccccc12)C(=O)N[C@H](C)C(=O)NCCC(=O)N[C@H](CC(C)C)C(=O)O [Reference Example 2, Boc-Leu-(D)Trp-(D)Ala-βAla-(D)Leu--OH, reference compound] (Boc-L[dW][dA][βAla][dL]-OH)
7 | 9 nM | CC(C)C[C@H](NC(=O)OC(C)(C)C)C(=O)N[C@H](Cc1c[nH]c2ccccc12)C(=O)N[C@H](C)C(=O)NCCC(=O)N[C@@H](Cc1ccc(O)cc1)C(=O)N[C@@H](Cc1ccccc1)C(=O)O [Example 2, Boc-Leu-(D)Trp-(D)Ala-βAla-Tyr-Phe-OH] (Boc-L[dW][dA][βAla]YF-OH)
8 | 4.6 nM | CC(C)C[C@H](NC(=O)OC(C)(C)C)C(=O)N[C@H](Cc1c[nH]c2ccccc12)C(=O)N[C@H](C)C(=O)NCCC(=O)N[C@@H](Cc1ccc(O)cc1)C(=O)N[C@H](Cc1ccccc1)C(=O)O [Example 1, Boc-Leu-(D)Trp-(D)Ala-βAla-Tyr-(D)Phe-OH] (Boc-L[dW][dA][βAla]Y[dF]-OH)
